Source: patent US6455593B1, “Method of dynamic retardation of cell cycle kinetics to potentiate cell damage” (priority 1995, dated 2002)
Read-outs that look alike come from different tables or passages of the source.

How the values were obtained:
p. falciparum W2 = assay: Parasite growth by 3H-hypoxanthine uptake in infected erythrocytes; assay type: cell-based; conditions: Plasmodium falciparum, W2, Erythrocyte, read-out: inhibitory concentrations (IC50), strain W2
U937 cells [1] = assay: Flow cytometric cell cycle analysis (propidium iodide); assay type: cell-based, human; conditions: U937
Experimental: Flow cytometric analyses were performed with a Coulter Epics System (purchased from Coulter Corp, Hialeah, Fla.). Cells were disrupted in buffer with 0.1% Triton-X 100 (or 0.6 % NP-40), so that the nuclei could be stained with 0.05% propidium iodide (PI). See Shapiro N M, Practical Flow Cytometry, Man R Liss, NY (1988); Nicoletti I et al., J Immunol Methods 139:271-9 (1991). Analyses of 10,000 nuclei were performed with graduated concentrations of dThd at serial time points. Histograms of PI fluorescent emissions at 675±10 nm were used to discriminate cell cycle fractions of the target population. The proportion of cells in each phase of the cell cycle is represented by stack bars above the X-axis as a fraction of those cells with intact DNA structure. The fraction of cells with depleted DNA in each sample is represented below the X-axis as a percentage of the total cell number. Cells with depleted DNA are presumed apoptotic. Crompton S T et. al. Biophys. Biochem. Res. Comm. 183:532-537 (1992). Each stack bar in FIG. 5 represents the cell cycle distribution of a population sample of >10,000 cells, analyzed for each indicated dThd concentration at indicated treatment times.
Flow cytometric analyses were performed as in Example 2. The results are shown in plot A of FIG. 5 from Example 2.
The U937 cells were exposed to a range of concentrations below the IC40 and sampled for flow cytometry at intervals of 8, 16, and 24 hours. Flow cytometric analysis was performed as described in Example 2.

U937 cells [2] = assay: Delayed proliferation assay (MTT 48 hr after washing)
Experimental: Microcultures treated with an agent or agents for a defined period (exactly as in Example 8) were washed. Seventy-five percent of the well volume was removed without disturbing the sedimented cells, and medium was added to yield a ⅕ dilution. In three additional washes and cell sedimentations, 50% of the medium was replaced such that the original concentration of agents was reduced to <5%. The metabolic mass of cells surviving or proliferating at 48 hr after the washings, including the untreated control cells, was then assayed by the MTT method (total elapsed time of 70 hours).
As an adjunct to the delayed proliferative assay, we utilized an “immediate plate” to quantitate the cell mass at the beginning of the experiment (N0=original cell mass). It required no more than a single column of microwells filled with 50 μl of growth medium each, and aliquots of cells in 50 μl identical to those transferred to the usual “test plate”. The immediate plate was incubated at 37° C. to complete the MTT assay for the same time as used for the test plate (i.e. 3 hr).
Taking the mean final cell mass at 70 hours as N, each data point represents a ratio of the mean cell mass of dThd-treated cells as fraction of N/N0. A ratio of N/N0=1 indicates no change in original cell mass (i.e. no growth of the targeted population). A ratio of N/N0>1 indicates overall growth of the targeted population. A ratio of N/N0<1 indicates overall population loss (cell killing).
Taking the mean final cell mass at 70 hours as N, positive percentages represent the % effective cytotoxicity (EC%) expressed as 1−N/N0 and converted to a percentage, in relation to concentration. Thus, EC obtained only for ratios of N/N0<1 (i.e. positive percentages).

[3] = system: human malignant lymphoma cells (U937); assay: Clonogenic assay in methylcellulose; assay type: cell-based
Excerpt: Elimination of a targeted cell population by a cytotoxic agent or agent combinations can not be assured if cells with generative capacity survive. The clonogenic assay in soft agar or methylcellulose is a practical and useful means of determining long-term effects of cytotoxic agents on a malignant cell population, since malignant cells are often capable of growing and forming colonies in these media. The colony forming efficiency of any line or population of malignant cells must be established from the colony count in relationship to the inoculum number and varies over a wide range. […] (same protocol as Example 2A, Table 7). Methylcellulose (MC) solution 2.1-2.3% was obtained from Stem Cell Technologies in Vancouver, B.C. and made up in a series of sterile tubes: (a) 0.4 ml MC stock solution, (b) 50 μl of NuSerum, (c) 2×10^4 cells from the treated cell suspension from the 24-well plate (about 250 μl) and (d) complete growth medium to make a final volume of 1 ml (final cell density=about 2×10^4 cells). A syringe with 18 g. needle was used to transfer load 100 μl of each sample the final cell preparation to each of triplicate wells in a 96-well plate. Thus the final cell number was about 2,000 cells/well. Plates were examined daily for colony formation. At days 3-5, colonies were counted. and colonies were overlaid with MTT: 25 μl, incubated overnight at 37° C. and 100 μl of 4% formalin was added to aid visualization and photography. […] The effective cytotoxicity was calculated as 1−C/C0 where C=the number of colonies formed by a sample of treated cells and C0=the number of colonies formed by an equal sample of untreated cells.

U937 cells [4] = assay: Bivariate flow cytometry, dUTP terminal transferase labelling of DNA strand breaks; assay type: cell-based, human
Experimental: In a more sophisticated use of flow cytometry, DNA strand breaks were detected in nuclei by means of terminal transferase and homopolymer tailing as described by Gorczyca W. et al., Cancer Res 53:1945-1951 (1993). Samples of 1×10^6 cells were fixed in 1% buffered formaldehyde at 0° C. for 5 minutes, washed with PBS, resuspended in 70% ethanol and stored at […] for 48 hours. Cells were rehydrated in PBS, then suspended in 100 μl of cacodylate buffer and 2.5 mM CoCI2 to prepare them for the terminal transferase reaction. Biotin-labelled 16-dUTP and terminal transferase (Boehringer Mannheim, GmbH) were added to provide the final concentration of […] and 500 units/ml, respectively, and reacted with the cells at 37° C. for 30 minutes. Cells were rinsed in PBS, resuspended in a 4×saline-citrate buffer with 0.1% triton X100, 5% (w/v) non-fat powdered milk and 2.5 μg/ml FITC-labelled avidin, Boehringer Mannheim, supra, and incubated at room temperature for 30 minutes. Excess avidin-FITC was removed by washing the cells with PBS containing 0.1% triton X-100. In the cells with DNA damage, biotin-labelled dUTP was localized by the avidin-FITC: avidin and biotin form a strong linkage and reveal the extent of dUTP homopolymer tailing.
The amount of DNA per cell reflects the cell cycle position of each cell.

p. falciparum D6 = assay: Parasite growth by 3H-hypoxanthine uptake in infected erythrocytes; assay type: cell-based; conditions: Plasmodium falciparum, D6, Erythrocyte, read-out: inhibitory concentrations (IC50), strain D6
[5] = cited from earlier work
[6] = Homo sapiens, U-937, 96 h, read-out: Maximum effective cytotoxicity (1-C/C0), clonogenic
[7] = 24 hr after RBC infection, 3H-hypoxanthine uptake

SMILES: CN[C@@H]1C[C@H]2O[C@@](C)([C@@H]1OC)n1c3ccccc3c3c4c(c5c6ccccc6n2c5c31)C(=O)NC4 [STSP, staurosporine]
- IC50 (p. falciparum W2): 150 nM
- Effect on cell cycle distribution (U937 cells [1]; 50 nM STSP, from 4 hours, shown at 8 hr and 24 hours): gradually accumulated in the G2 and M phases
- Effective cytotoxicity (1-N/N0) (U937 cells [2]; 13 nM STSP in the presence of 0.5 mM dThd, 70 hours): about 85%
- Effective cytotoxicity (1-N/N0) (U937 cells [2]; 25 nM STSP in the presence of 0.1 mM dThd, 70 hours): about 85%
- Emax at 0.02 µM [3, 6]: 40 to 60%
- Effective cytotoxicity, clonogenic ([3]; optimal synergistic match of dThd and STSP, 96 hours): almost total cytotoxicity
- dUTP labelling (DNA fragmentation) (U937 cells [4]; 4 hours of 0.2 mM dThd followed by 25 nM STSP for additional 7 hours): marked increase in the number of dUTP labelled cells
- IC50 (p. falciparum D6): 190 nM

SMILES: Cc1cn([C@H]2C[C@H](O)[C@@H](CO)O2)c(=O)[nH]c1=O [dThd, deoxythymidine]
- Effect on cell cycle progression (U937 cells [1]; 0.2 mM dThd): permitted continuous cell transit
- Effect on cell cycle progression (U937 cells [1]; 3 mM dThd): arrested cell cycle progression at G1/S
- Effect on cell growth (U937 cells [2]; 0.1 mM dThd alone, FIG. 20): minimal effect on cell growth as compared to controls
- Concentration for effective cytotoxicity of 40% (EC40) (U937 cells [2]; dThd alone, 70 hours): More than 3 mM
- Emax at 100 µM [3, 6]: 40 to 60%
- dUTP labelling (DNA fragmentation) (U937 cells [4]; 3 mM dThd, 11 hours): appearance of cells with dUTP labelling, indicating DNA fragmentation
- Blood (plasma) levels achieved ([5]; human subjects, oral doses): up to 6 mM

SMILES: C[C@@]1(CO)[C@H](O)CC[C@@]2(C)[C@H]1CC[C@H]1C[C@@H]3C[C@@]12CC[C@]3(O)CO [Aph, aphidicolin]
- IC50 (p. falciparum W2; [7]): 123 nM
- IC50 (p. falciparum D6; [7]): 400 nM
- Peak plasma levels ([5]; continuous infusion, minimal toxicity): 3 µg/mL
